Several values for one entry are separate records, joined by “and”; a condition that tells them apart may be missing. Equal entries are not always repeated. Structures can show the parent of a compound that is named as a salt.
Legend:
telomerase = tested on: telomerase; design: method as in PMID 26307677; conditions: cited from earlier work
[1] = cited from earlier work
[2] = tested on: recurrent or refractory pediatric CNS and solid tumors; test: Tumor response assessment (RECIST; INRC for neuroblastoma); type: in vivo, human; design: key to Best Response: no response per INRC; PD: progressive disease per RECIST or INRC; SD: stable disease per RECIST; conditions: for Subjects with stable disease as best response: stable disease for 2 months
Description: Tumor assessments were performed approximately every 8 weeks. For subjects with tumors other than neuroblastoma, responses were assessed by the study radiologist and principal investigator (SH, ID) via the Response Evaluation Criteria in Solid Tumors (RECIST). For subjects with neuroblastoma, responses were assessed by a single investigator (BK) using the International Neuroblastoma Response Criteria (INRC).

[3] = design: method as in PMID 25740692; conditions: oral, adult non-tumor bearing rhesus monkeys, cerebrospinal fluid; cited from earlier work
[4] = tested on: mouse brainstem glioma model; design: method as in PMID 25712742; conditions: doses demonstrated to be effective in cell culture; cited from earlier work
[5] = Steady state plasma pharmacokinetics (LC/electrospray MS); type: in vivo, human
Description: Samples for pharmacokinetic analysis were obtained at baseline and during weeks 2 through 4 of cycle 1. At each time point, heparinized blood was collected into a plastic vacutainer to minimize adhesion of perifosine. Plasma was separated by centrifugation and stored in polypropylene cryovials at -70°C until assayed. Perifosine in plasma was measured by a validated reversed phase liquid chromatography/electrospray mass spectrometry method as developed and validated by Woo et al..

SMILES: CCCCCCCCCCCCCCCCCCOP(=O)([O-])OC1CC[N+](C)(C)CC1 [perifosine, 1,1-Dimethyl-4-[[(octadecyloxy)hydroxyphosphinyl]oxy]-piperidinium inner salt]
- Doses inhibiting telomerase activity (telomerase): low micromolar
- Dose at which dose exposure plateau was reached ([1]; 2 adult studies): higher than 100 mg/m^2/day
- Plasma half-life [1]: approximately 4 days
- Objective responses ([2]; 23 patients, all dose levels): No objective responses
- Best Response ([2]; Patient 1, dose level 1, medulloblastoma): PD
- Best Response ([2]; Patient 2, dose level 1, medulloblastoma): PD
- Best Response ([2]; Patient 3, dose level 1, neuroblastoma): NR
- Duration of Best Response ([2]; Patient 3, dose level 1, neuroblastoma, NR): 11 months
- Best Response ([2]; Patient 4, dose level 2, glioblastoma): PD
- Best Response ([2]; Patient 5, dose level 2, neuroblastoma): NR
- Duration of Best Response ([2]; Patient 5, dose level 2, neuroblastoma, NR): 63 months
- Best Response ([2]; Patient 6, dose level 2, anaplastic astrocytoma): SD
- Duration of Best Response ([2]; Patient 6, dose level 2, anaplastic astrocytoma, SD): 2 months
- Best Response ([2]; Patient 7, dose level 3, glioblastoma): SD
- Duration of Best Response ([2]; Patient 7, dose level 3, glioblastoma, SD): 2 months
- Best Response ([2]; Patient 8, dose level 3, anaplastic astrocytoma): SD
- Duration of Best Response ([2]; Patient 8, dose level 3, anaplastic astrocytoma, SD): 2 months
- Best Response ([2]; Patient 9, dose level 3, anaplastic astrocytoma): SD
- Duration of Best Response ([2]; Patient 9, dose level 3, anaplastic astrocytoma, SD): 2 months
- Best Response ([2]; Patient 10, dose level 3, ependymoma): PD
- Best Response ([2]; Patient 11, dose level 3, neuroblastoma): NR
- Duration of Best Response ([2]; Patient 11, dose level 3, neuroblastoma, NR): 2 months
- Best Response ([2]; Patient 12, dose level 4, neuroblastoma): PD
- Best Response ([2]; Patient 13, dose level 4, Ewing sarcoma/PNET): PD
- Best Response ([2]; Patient 14, dose level 4, neuroblastoma): NR
- Duration of Best Response ([2]; Patient 14, dose level 4, neuroblastoma, NR): 4 months
- Best Response ([2]; Patient 15, dose level 4, neuroblastoma): NR
- Duration of Best Response ([2]; Patient 15, dose level 4, neuroblastoma, NR): 42 months
- Best Response ([2]; Patient 16, dose level 4, neuroblastoma): PD
- Best Response ([2]; Patient 17, dose level 4, DIPG): PD
- Best Response ([2]; Patient 18, dose level 5, Wilms tumor): PD
- Best Response ([2]; Patient 19, dose level 5, DIPG): PD
- Best Response ([2]; Patient 20, dose level 5, DIPG): SD
- Duration of Best Response ([2]; Patient 20, dose level 5, DIPG, SD): 2 months
- Best Response ([2]; Patient 21, dose level 5, ependymoma): PD
- Best Response ([2]; Patient 22, dose level 5, ependymoma): PD
- Best Response ([2]; Patient 23, dose level 5, neuroblastoma): PD
- Subjects with disease stability (no response per INRC) ([2]; neuroblastoma, for 2, 4, 11, 42 and 63 months): Five of 8
- Subjects with stable disease as best response ([2]; recurrent high-grade astrocytoma): 4 of 5
- Duration of prolonged stable disease ([2]; three subjects with neuroblastoma): ≥ 11 months
- Subjects with stable disease as best response ([2]; three subjects with recurrent DIPG): 1
- CNS penetration [3]: limited
- Acute toxicity after convection enhanced delivery [4]: no serious acute toxicities
- Average Plasma Level (standard deviation) ([5]; dose level 1, target 25 mg/m^2/day, patients 1,2,3, steady state): 6.8 (1.6) μg/mL
- Average Plasma Level (standard deviation) ([5]; dose level 2, target 50 mg/m^2/day, patients 4,5,6, steady state): 14.4 (2.5) μg/mL and 39.0 (6.8) μM
- Average Plasma Level (standard deviation) ([5]; dose level 3, target 75 mg/m^2/day, patients 7-11, steady state): 11.5 (3.1) μg/mL and 31.1 (8.5) μM
- Average Plasma Level (standard deviation) ([5]; dose level 4, target 100 mg/m^2/day, patients 12-17, steady state): 12.7 (6.1) μg/mL and 34.4 (16.5) μM
- Average Plasma Level (standard deviation) ([5]; dose level 5, target 125 mg/m^2/day, patients 18-22, steady state): 12.1 (3.5) μg/mL and 32.8 (9.5) μM
- Steady state plasma levels ([5]; observed in most patients): above 10 μM
- Maintenance dose at which dose exposure plateau is reached ([5]; pediatric patients, steady state plasma levels): 50 mg/m^2/day
